Laboratory results reported in patent publication US20050059626A1, “Methods of preventing and treating viral infections using immunomodulatory polynucleotide sequences” (priority 2000, published 2005).
Read-outs that look alike come from different tables or passages of the source.

Columns and labels:
[1] = system: influenza A/Mississippi (H3N2) virus; format: in vivo, mice; conditions: for Pulmonary virus titer (log10/lung) Mean / Pulmonary virus titer (log10/lung) in mouse no. 1 / Pulmonary virus titer (log10/lung) in mouse no. 2 / Pulmonary virus titer (log10/lung) in mouse no. 3 / Pulmonary virus titer (log10/lung) in mouse no. 4 / Pulmonary virus titer (log10/lung) in mouse no. 5 / Pulmonary virus titer (log10/lung) in mouse no. 6 / Pulmonary virus titer (log10/lung) in mouse no. 7: non-ISS = SEQ ID NO:9
canine papillomavirus = assay: Canine oral papilloma model, time to lesion regression; format: in vivo, Beagle puppies
Experimental: A model of canine oral papilloma was used to test the efficacy of ISS on papilloma. Beagle puppies were inoculated in the bucal mucosa with canine papillomavirus and developing papilloma lesions were monitored daily. Four groups of seven dogs each were treated with differing amount of ISS oligonucleotide (5′-[…]-3′ (SEQ ID NO:1), phosphorothioate backbone). One group received 50 μg ISS twice a week, another group received 500 μg ISS twice a week, the third group received 500 μg ISS one time only at the first signs of papilloma lesion development (injected within the papilloma lesion) and the fourth group (control group) received PBS twice a week. All dogs were monitored daily for the development of lesions and the time to regression.

HBV = assay: Chronic HBV model: serum HBV DNA and HBsAg in STC transgenic mice; format: in vivo, STC strain transgenic mice
Experimental: ISS activity was tested in an animal model of chronic hepatitis. An ISS-containing phosphorothioate oligonucleotide (5′-[…]-3′) (SEQ ID NO:1), was delivered to STC strain transgenic mice, followed by measurement of HBV DNA and HBsAg production.
STC line mice were developed at Stanford University by Patricia Marion. The majority of these mice secrete HBV of the Ayw genotype (Galibert et al. (1979) Nature 281:646) to titers of 10^6-8 viral genome equivalents per ml of serum. STC mice were derived from the FVB strain, and were constructed by microinjection of HBV genomic DNA.
Approximately one month old mice were bled and tested for serum levels of HBsAg, which is predictive of viral DNA titer. A pool of 40 STC mice with approximately equal levels of HBsAg were selected and randomly assigned to four treatment groups of 10 animals each. The groups were treated as follows: • 1. 100 μg of ISS injected subcutaneously, once per week for 3 weeks (days 0, 7, 14) • 2. 100 μg of ISS injected subcutaneously, one injection at day 14 • 3. 100 ng of murine 1L-12 injected intraperitoneally on days 12, 13, and 14. • 4. PBS injected subcutaneously (days 0, 7, 14)
Blood samples were taken at day 0, 7, 14, 15 (22 hr after last IL-12 injection), 18, 28 and 35. Serum prepared from the blood samples was tested for HBV DNA by quantitative PCR (testing performed under contract by Hepadnavirus Testing, Inc.), and HBsAg using a commercially available EIA kit for HBsAg from Abbott Laboratories. Animals were sacrificed at day 35 and livers were collected for histologic analysis.

HSV-2 = assay: Viral titer from Vero cells pre-treated with oligonucleotide, HSV-2; format: cell-based, African Green monkey (Vero cells); conditions: cells infected with HSV-2
Experimental: Vero cells, a cell line derived from African Green monkey kidney, were pre-treated with varying concentrations of ISS or non-ISS oligonucleotides for varying times prior to the addition of HSV-1 or HSV-2. Oligonucleotides were used at 1 μg/ml or 10 μg/ml and the cells were incubated with the oligonucleotides for 30 seconds, 10 minutes or 24 hours. Viral titers were calculated as a percent of control titer generated by cells not treated with the oligonucleotides. The data are expressed as percent of control titer.

[2] = 50 μg IN Day 0 shortly before virus, lungs Day 4
[3] = 50 μg IN Day −3, virus Day 0, lungs Day 4

## 5′-TGACTGTGAACGTTCGAGATGA-3′ [SEQ ID NO: 1]
[1]; [2]
  Pulmonary virus titer (log10/lung) Mean: 4.6 log10/lung
  Pulmonary virus titer (log10/lung) in mouse no. 1: 4 log10/lung
  Pulmonary virus titer (log10/lung) in mouse no. 2: 5.5 log10/lung
  Pulmonary virus titer (log10/lung) in mouse no. 3: 5 log10/lung
  Pulmonary virus titer (log10/lung) in mouse no. 4: 4.5 log10/lung
  Pulmonary virus titer (log10/lung) in mouse no. 5: 4.5 log10/lung
  Pulmonary virus titer (log10/lung) in mouse no. 6: 4.5 log10/lung
  Pulmonary virus titer (log10/lung) in mouse no. 7: 4.5 log10/lung
[1]; [3]
  Pulmonary virus titer (log10/lung) Mean: 4.7 log10/lung
  Pulmonary virus titer (log10/lung) in mouse no. 1: 5.5 log10/lung
  Pulmonary virus titer (log10/lung) in mouse no. 2: 4 log10/lung
  Pulmonary virus titer (log10/lung) in mouse no. 3: 6 log10/lung
  Pulmonary virus titer (log10/lung) in mouse no. 4: 5.5 log10/lung
  Pulmonary virus titer (log10/lung) in mouse no. 5: 5 log10/lung
  Pulmonary virus titer (log10/lung) in mouse no. 6: 4 log10/lung
  Pulmonary virus titer (log10/lung) in mouse no. 7: 3 log10/lung
[1]; IN, 50 μg/mouse before viral infection
  Reduction in influenza virus titer compared to PBS: fails to cause a satisfactory significant reduction in virus titer
Canine papillomavirus; 500 μg one time at first signs of papilloma lesion
  Average rate of lesion regression: higher average rate of lesion regression than untreated dogs
Canine papillomavirus; 500 μg one time at first signs of papilloma, injected within the lesion
  Average time for rapid regression: 25.1 days
Canine papillomavirus; other treatment groups: 50 μg or 500 μg twice a week
  Regression time: did not show a marked difference in regression time
HBV; Group 2: single SC injection 100 μg at day 14, three days after injection
  Reduction of mean viral DNA titer: 90 fold
HBV; STC mice, 100 μg SC
  Serum HBsAg levels versus PBS controls: trend towards decreased average HBsAg values
HBV; STC mice, ISS 100 μg SC, murine IL-12 100 ng IP days 12, 13, 14
  Effect on serum HBV DNA viral titer: effective in reducing viral titer
HSV-2; cells pre-treated 1 μg/ml, 30 sec
  Viral titer, percent of control titer: 101% of control titer
HSV-2; cells pre-treated 1 μg/ml, 10 min
  Viral titer, percent of control titer: 98% of control titer
HSV-2; cells pre-treated 1 μg/ml, 24 hr
  Viral titer, percent of control titer: 99% of control titer
HSV-2; cells pre-treated 10 μg/ml, 30 sec
  Viral titer, percent of control titer: 101% of control titer
HSV-2; cells pre-treated 10 μg/ml, 10 min
  Viral titer, percent of control titer: 101% of control titer
HSV-2; cells pre-treated 10 μg/ml, 24 hr
  Viral titer, percent of control titer: 99% of control titer
